How the values were obtained:
[1] = xn = mol fraction of the nth substance listed; details: 81.5 kPa, Liquid
[2] = 81.5 kPa, Liquid

CC(C)O [propan-2-ol] + O
mass density [kg/m3], [1]
Details	293.15 K	303.15 K	313.15 K	323.15 K
x1 = 0.0399	979.61	976	971.52	966.2
x1 = 0.1197	948.88	941.64	934.18	926.48
x1 = 0.2017	916.63	908.64	900.42	891.98
x1 = 0.28	891.87	883.56	875.01	866.23
x1 = 0.359	871.15	862.65	853.89	844.85
x1 = 0.4384	854.11	845.46	836.52	827.31
x1 = 0.5204	839.36	830.58	821.54	812.2
x1 = 0.5995	827.56	818.72	809.6	800.16
x1 = 0.6801	817.14	808.26	799.08	789.6
x1 = 0.7552	808.56	799.67	790.48	780.98
x1 = 0.8403	799.95	791.1	781.97	772.47
x1 = 0.9225	792.03	783.34	774.33	764.97
x1 = 1	785.1	776.63	767.84	758.68

O [water] + CC(C)O
Details	mass density [kg/m3]
[1], 323.15 K, x2 = 0	988.03

CC(C)O [propan-2-ol]
[2]
Details	mass density [kg/m3]
293.15 K	785.1
303.15 K	776.63
313.15 K	767.84
323.15 K	758.68

CCCO [propan-1-ol] + O
mass density [kg/m3], [1]
Details	293.15 K	303.15 K	313.15 K	323.15 K
x1 = 0.0401	980.98	976.93	972.23	966.91
x1 = 0.1202	947.94	941.35	934.48	927.31
x1 = 0.2	918.86	911.37	903.85	896.05
x1 = 0.2798	895.6	887.91	879.98	871.78
x1 = 0.3599	877.53	869.57	861.38	852.93
x1 = 0.4399	863	854.86	846.49	837.86
x1 = 0.5197	851.12	842.87	834.37	825.64
x1 = 0.5986	840.82	832.48	823.92	815.16
x1 = 0.6792	831.69	823.34	814.76	805.95
x1 = 0.7485	824.84	816.47	807.91	799.13
x1 = 0.8383	816.74	808.45	799.96	791.25
x1 = 0.9052	811.17	802.94	794.55	785.94
x1 = 1	803.59	795.53	787.38	778.92

CCCO [propan-1-ol]
[2]
Details	mass density [kg/m3]
293.15 K	803.59
303.15 K	795.53
313.15 K	787.38
323.15 K	778.92

O [water] + CCCO
Details	mass density [kg/m3]
[1], 323.15 K, x2 = 0	988.03

Reference: the NIST ThermoML archive (doi:10.1021/je800158z)
